Source: the supplement of paper PMC11061612

Experiments:
Test in all cases: Bliss excess, mean over the matrix (fraction); higher = more synergy
[1] = tested on: NCI-H1838 (Lung Adenocarcinoma)
In short: (§1)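 Cell lines in DMEM/F12 or RPMI with 10% FBS were plated in 1536-well plates, held 24 hours at 37°C, 5% CO2, then given two-drug dose matrices for 72 hours (DMSO typically 0.2%). Viability was read by CellTiter-Glo 2.0 luminescence and scaled as inhibition from 0 (vehicle wells) to 1 (blank wells). Combination Emax is the second-highest inhibition in the matrix; Bliss excess is observed combination effect minus expected EA + EB − EA·EB, EA and EB being single-agent effects.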

[2] = tested on: HAL-01 (B-Lymphoblastic Leukemia)
In short: as §1

[3] = tested on: G-401 (Other Solid Carcinomas)
In short: as §1

[4] = tested on: COLO-668 (Small Cell Lung Carcinoma)
In short: as §1

[5] = tested on: KOPN-8 (B-Lymphoblastic Leukemia)
In short: as §1

[6] = tested on: LC-1-sq (Squamous Cell Lung Carcinoma)
In short: as §1

[7] = tested on: MV-4-11 (Acute Myeloid Leukemia)
In short: as §1

[8] = tested on: SW982 (Other Solid Carcinomas)
In short: as §1

[9] = tested on: ME-180 (Cervical Carcinoma)
In short: as §1

[10] = tested on: NCI-H1355 (Lung Adenocarcinoma)
In short: as §1

[11] = tested on: NCI-H650 (Lung Adenocarcinoma)
In short: as §1

[12] = tested on: HCC1937 (Breast Carcinoma)
In short: as §1

[13] = tested on: CADO-ES1 (Ewing's Sarcoma)
In short: as §1

[14] = tested on: ML-2 (Acute Myeloid Leukemia)
In short: as §1

[15] = tested on: NCI-H1993 (Lung Adenocarcinoma)
In short: as §1

[16] = tested on: EFO-21 (Ovarian Carcinoma)
In short: as §1

[17] = tested on: MOLT-4 (T-Lymphoblastic Leukemia)
In short: as §1

[18] = tested on: OACM5-1 (Esophageal Adenocarcinoma)
In short: as §1

[19] = tested on: SNU-387 (Hepatocellular Carcinoma)
In short: as §1

[20] = tested on: KMRC-1 (Kidney Carcinoma)
In short: as §1

| Structure (SMILES) | Bliss excess [1] | Bliss excess [2] | Bliss excess [3] | Bliss excess [4] | Bliss excess [5] | Bliss excess [6] | Bliss excess [7] | Bliss excess [8] | Bliss excess [9] | Bliss excess [10] | Bliss excess [11] | Bliss excess [12] | Bliss excess [13] | Bliss excess [14] | Bliss excess [15] | Bliss excess [16] | Bliss excess [17] | Bliss excess [18] | Bliss excess [19] | Bliss excess [20] |
| --- | --- | --- | --- | --- | --- | --- | --- | --- | --- | --- | --- | --- | --- | --- | --- | --- | --- | --- | --- | --- |
| Cc1c2c(nn1C)CSCc1cc(n(C)n1)CSc1cc(c3ccccc3c1)OCCCc1c(C(=O)O)n(C)c3c-2c(Cl)ccc13 [AZD5991] + CC1(C)CCC(CN2CCN(c3ccc(C(=O)NS(=O)(=O)c4ccc(NCC5CCOCC5)c([N+](=O)[O-])c4)c(Oc4cnc5[nH]ccc5c4)c3)CC2)=C(c2ccc(Cl)cc2)C1 [Venetoclax] (first compound max 1 µM, 7x7, partner max 1 µM) | 0.0125 | 0.0231 | 0.0446 | 0.0932 | -0.102 | 0.0184 | 0.0591 | -0.0312 | 0.0131 | -0.0567 | -0.0014 | -0.0208 | -0.0023 | 0.16 | 0.0009 | -0.0608 | 0.124 | 0.0228 | -0.0426 | -0.0446 |
| NC1(C(=O)N[C@@H](CCO)c2ccc(Cl)cc2)CCN(c2ncnc3[nH]ccc23)CC1 [Capivasertib] + CC(C)n1c(=O)n(C)c2cnc3cc(F)c(-c4ccc(OCCCN5CCCCC5)nc4)cc3c21 [AZD1390] (first compound max 10 µM, 7x7, partner max 0.3 µM) | -0.123 | -0.0354 | -0.0346 | -0.0298 | -0.0611 | -0.0461 | -0.0393 | -0.0696 | -0.033 | -0.0206 | -0.0899 | -0.0666 | -0.039 | -0.0296 | -0.0311 | -0.0361 | -0.0083 | -0.0676 | -0.101 | -0.0645 |
| Cn1cnc2c(F)c(Nc3ccc(Br)cc3Cl)c(C(=O)NOCCO)cc21 [Selumetinib] + CC(C)n1c(=O)n(C)c2cnc3cc(F)c(-c4ccc(OCCCN5CCCCC5)nc4)cc3c21 [AZD1390] (first compound max 10 µM, 7x7, partner max 0.3 µM) | -0.0514 | 0.0741 | -0.0623 | 0.0314 | 0.0131 | -0.0465 | -0.0719 | -0.0484 | -0.0521 | 0.0043 | -0.0329 | -0.0161 | -0.0446 | -0.0506 | -0.0741 | -0.026 | 0.0535 | -0.0273 | -0.0512 | -0.0685 |
| COc1cccc(OCCCN)c1-c1cc(Nc2cnc(C#N)cn2)n[nH]1 [Prexasertib] + CN(C)CCCOc1ccc(-c2ccc3ncc4c(c3c2)n(C2CCOCC2)c(=O)n4C)cn1 [AZD0156] (first compound max 1 µM, 7x7, partner max 1 µM) | -0.0285 | -0.0002 | -0.0265 | -0.0161 | 0.0171 | -0.0038 | -0.0249 | -0.0813 | -0.0255 | -0.0429 | -0.008 | 0.0409 | 0.0008 | 0.003 | -0.0768 | -0.0684 | 0.0108 | -0.0235 | -0.0232 | -0.0317 |
| CCN(CCO)CCCOc1ccc2c(Nc3cc(CC(=O)Nc4cccc(F)c4)[nH]n3)ncnc2c1 [AZD2811] + C[C@@H]1COCCN1C2=NC(=NC(=C2)C3(CC3)[S@](=N)(=O)C)C4=C5C=CNC5=NC=C4 [AZD6738] (first compound max 1 µM, 7x7, partner max 10 µM) | -0.0107 | 0.0306 | -0.0518 | -0.038 | 0.032 | -0.0239 | -0.0118 | -0.0585 | -0.0385 | -0.112 | -0.0422 | -0.0972 | -0.012 | -0.0428 | -0.0726 | -0.0656 | -0.0208 | -0.0628 | -0.0864 | -0.042 |
| CN(C)CCCOc1ccc(-c2ccc3ncc4c(c3c2)n(C2CCOCC2)c(=O)n4C)cn1 [AZD0156] + CCN(CCO)CCCOc1ccc2c(Nc3cc(CC(=O)Nc4cccc(F)c4)[nH]n3)ncnc2c1 [AZD2811] (first compound max 1 µM, 7x7, partner max 1 µM) | -0.0122 | 0.0135 | -0.0279 | -0.0175 | 0.0535 | 0.0392 | -0.0383 | -0.0042 | -0.0143 | -0.0599 | -0.0159 | -0.0387 | 0.0131 | -0.0594 | -0.0335 | -0.0506 | 0.0107 | -0.0366 | -0.0569 | -0.0251 |
| CC(=O)c1c(C)c2cnc(Nc3ccc(N4CCNCC4)cn3)nc2n(C2CCCC2)c1=O [Palbociclib] + Cc1c2c(nn1C)CSCc1cc(n(C)n1)CSc1cc(c3ccccc3c1)OCCCc1c(C(=O)O)n(C)c3c-2c(Cl)ccc13 [AZD5991] (first compound max 10 µM, 7x7, partner max 1 µM) | -0.0634 | 0.0597 | 0.0308 | -0.0288 | 0.0082 | -0.0587 | 0.0127 | -0.0151 | -0.0545 | -0.0147 | -0.0583 | -0.0498 | -0.0356 | 0.0133 | 0.0186 | -0.0458 | -0.0073 | -0.0456 | -0.0515 | -0.0363 |
| Cc1c2c(nn1C)CSCc1cc(n(C)n1)CSc1cc(c3ccccc3c1)OCCCc1c(C(=O)O)n(C)c3c-2c(Cl)ccc13 [AZD5991] + C[C@@H]1COCCN1C2=NC(=NC(=C2)C3(CC3)[S@](=N)(=O)C)C4=C5C=CNC5=NC=C4 [AZD6738] (first compound max 1 µM, 7x7, partner max 10 µM) | -0.0021 | -0.0042 | -0.0341 | -0.0064 | -0.0067 | 0.047 | 0.0008 | -0.0086 | 0.0329 | 0.0264 | 0.0217 | 0.061 | 0.0135 | -0.0999 | -0.0216 | 0.016 | 0.0318 | 0.0257 | 0.0408 | 0.0201 |
| CN(C)CCCOc1ccc(-c2ccc3ncc4c(c3c2)n(C2CCOCC2)c(=O)n4C)cn1 [AZD0156] + C[C@@H]1COCCN1C2=NC(=NC(=C2)C3(CC3)[S@](=N)(=O)C)C4=C5C=CNC5=NC=C4 [AZD6738] (first compound max 1 µM, 7x7, partner max 10 µM) | -0.0082 | -0.0648 | -0.0017 | -0.017 | -0.0166 | -0.0098 | -0.06 | -0.0507 | -0.0468 | -0.0234 | -0.011 | -0.0386 | 0.0405 | -0.0248 | -0.0329 | -0.0206 | 0.0033 | -0.0282 | 0.0187 | -0.0496 |
| COc1nnc2ccc(N3CCC(c4ccc(OCCN5CCN(C)C(=O)[C@H]5C)cc4)CC3)nn12 [AZD5153] + C[C@@H]1COCCN1C2=NC(=NC(=C2)C3(CC3)[S@](=N)(=O)C)C4=C5C=CNC5=NC=C4 [AZD6738] (first compound max 1 µM, 7x7, partner max 10 µM) | 0.0023 | -0.0737 | -0.0078 | 0.0137 | -0.0114 | 0.0175 | 0.0009 | -0.0392 | -0.0108 | -0.006 | 0.0125 | -0.0516 | -0.0881 | -0.0116 | -0.0462 | -0.0069 | 0.0394 | 0.0593 | -0.0501 | 0.0195 |
| COc1cccc(OCCCN)c1-c1cc(Nc2cnc(C#N)cn2)n[nH]1 [Prexasertib] + CCc1c2c(nc3ccc(O)cc13)-c1cc3c(c(=O)n1C2)COC(=O)[C@]3(O)CC [SN-38] (first compound max 1 µM, 7x7, partner max 0.3 µM) | -0.0001 | -0.0262 | -0.0398 | -0.0788 | -0.0147 | 0.0039 | -0.0107 | -0.0952 | 0.0232 | 0.0231 | -0.0227 | -0.011 | 0.0033 | -0.007 | 0.055 | -0.0714 | -0.0075 | -0.0675 | 0.0549 | -0.0247 |
| CC1(C)CCC(CN2CCN(c3ccc(C(=O)NS(=O)(=O)c4ccc(NCC5CCOCC5)c([N+](=O)[O-])c4)c(Oc4cnc5[nH]ccc5c4)c3)CC2)=C(c2ccc(Cl)cc2)C1 [Venetoclax] + COc1cc(Nc2ncc3c(n2)-c2ccc(Cl)cc2C(c2c(F)cccc2OC)=NC3)ccc1C(=O)O [Alisertib] (first compound max 1 µM, 7x7, partner max 10 µM) | -0.0183 | 0.121 | -0.0135 | 0.066 | 0.036 | -0.0116 | 0.0134 | -0.0524 | -0.0226 | -0.0205 | -0.0361 | -0.0852 | 0.032 | 0.13 | -0.029 | -0.0576 | -0.0938 | 0.0758 | -0.0456 | -0.012 |
| Cc1c2c(nn1C)CSCc1cc(n(C)n1)CSc1cc(c3ccccc3c1)OCCCc1c(C(=O)O)n(C)c3c-2c(Cl)ccc13 [AZD5991] + C=CCn1c(=O)c2cnc(Nc3ccc(N4CCN(C)CC4)cc3)nc2n1-c1cccc(C(C)(C)O)n1 [AZD1775] (first compound max 1 µM, partner max 1 µM) | 0.0159 | -0.0197 | 0.0023 | -0.0643 | -0.0397 | -0.0139 | -0.0407 | -0.0549 | -0.0379 | 0.0071 | 0.0397 | -0.0157 | -0.0308 | -0.0342 | 0.0026 | 0.0177 | -0.0043 | -0.04 | -0.0632 | 0.0071 |
